The source of these data is PMC5367011, “Sterols from Thai Marine Sponge Petrosia (Strongylophora) sp. and Their Cytotoxicity” (Marine Drugs, 2017).

Common to all, as to type: cell-based
The subject of one test is HepG2 (hepatocarcinoma). The experiment in a line: Cytotoxicity, MTT assay, HepG2. As to conditions: Homo sapiens; for IC50: HepG-2, mean ± S.D. (n = 3), MTT assay. On the procedure: (§1) In our study, several compounds (1–4, 6–8, 10, and 12–16) were evaluated for their cytotoxicity using a panel of human cancer cell lines, including MOLT-3 (acute lymphoblastic leukemia), HepG2 (hepatocarcinoma), A549 (human lung cancer), HuCCA-1 (human chlolangiocarcinoma), HeLa (cervical carcinoma), and MDA-MB-231 (hormone-independent breast cancer) as well as a normal cell line, MRC-5 (normal human embryonic lung fibroblasts).
(§2) The cytotoxic activity toward a panel of mammalian cancer cell lines (HepG2, A549, HuCCA-1, HeLa, MDA-MB-231) were tested using the 3-(4,5-dimethylthiazol-2-yl)-2,5-diphenyltetrazolium bromide (MTT) assay, while the activity toward MOLT-3 cancer cell line was performed by the 2,3-bis-(2-methoxy-4-nitro-5-sulphenyl)-(2H)-tetrazolium-5-carboxanilide (XTT) assay. Etoposide and doxorubicin were used as positive controls (Table 4).

Test [1] has as its system HuCCA-1 (human chlolangiocarcinoma). The experiment in a line: Cytotoxicity, MTT assay, HuCCA-1. The settings on record: for IC50: HuCC-A1, mean ± S.D. (n = 3), MTT assay. How it is done: as §1, §2
Test [2] relates to HeLa (cervical carcinoma). The experiment in a line: Cytotoxicity, MTT assay, HeLa. The settings on record: Homo sapiens, mean ± S.D. (n = 3). How it is done: as §1, §2
A general note: Tetrazolium assays rely on reduction of a dye to a coloured formazan, in cell work by metabolically active cells.

Test [3] deals with MRC-5 (normal human embryonic lung fibroblasts). The experiment in a line: Cytotoxicity toward normal cell line MRC-5. The settings on record: for IC50: MRC5, MRC-5 normal cell line, mean ± S.D. (n = 3). How it is done: as §1
In another test the test system is A549 (human lung cancer). The experiment in a line: Cytotoxicity, MTT assay, A549. The settings on record: for IC50: mean ± S.D. (n = 3), MTT assay. On the procedure: as §1, §2
The test system of test [4] is MDA-MB-231 (hormone-independent breast cancer). Nature of the test: Cytotoxicity, MTT assay, MDA-MB-231. The settings on record: Homo sapiens, mean ± S.D. (n = 3). On the procedure: as §1, §2
Test [5] relates to MOLT-3 (acute lymphoblastic leukemia). Nature of the test: Cytotoxicity, XTT assay, MOLT-3. The settings on record: Homo sapiens; for IC50: mean ± S.D. (n = 3), XTT assay. On the procedure:
as §1, §2

With `COc1cccc2c1C(=O)c1c(O)c3c(c(O)c1C2=O)C[C@@](O)(C(=O)CO)C[C@@H]3O[C@H]1C[C@H](N)[C@H](O)[C@H](C)O1` [Doxorubicin, reference compound], the half-inhibitory concentration (IC50) (in general, the point on the concentration scale where inhibition reaches its midpoint) worked out at 0.55 ± 0.12 µM in the test with HepG2 (hepatocarcinoma); 2.24 ± 0.15 µM in test [1]; 0.17 ± 0.1 µM in test [2]; 0.92 ± 0.06 µM in the test on A549 (human lung cancer); 1.78 ± 0.54 µM in test [4]. For the same compound, in test [3] (MRC5, MRC-5, at 50.00 μM), at 50 µM the inhibition was 24.9%.
On to `COc1cc([C@@H]2c3cc4c(cc3[C@@H](O[C@@H]3O[C@@H]5CO[C@@H](C)O[C@H]5[C@H](O)[C@H]3O)[C@H]3COC(=O)[C@H]23)OCO4)cc(OC)c1O` [Etoposide, reference compound], for which the values for the 50% inhibitory concentration (IC50) (with HepG2 (hepatocarcinoma); in test [5]) were 31.5 ± 15.6 µM and 0.07 ± 0.005 µM, respectively.
For the compound `CC1CC1C(C)CC(O)C(O)(CO)[C@H]1CC[C@H]2[C@@H]3CC[C@H]4CC(=O)CC[C@]4(C)[C@H]3C[C@@H](O)[C@]12C` (stereo partly drawn) [Compound 14, xestokerol A], the concentration for half-maximal inhibition (IC50) was 41.4 ± 3.24 µM in the test with HepG2 (hepatocarcinoma); 34.4 ± 1.83 µM in test [1]; 65.9 ± 4.54 µM in test [3]; 24.4 ± 3.11 µM in test [5]; 23.8 ± 1.87 µM in the test on A549 (human lung cancer).
Take `COC1(OC)CC[C@@]2(C)[C@@H](C[C@@H](O)[C@@H]3[C@@H]2C[C@@H](O)[C@@]2(C)[C@H]3CC[C@@H]2[C@@](C)(O)CC[C@@H](C)[C@@H]2C[C@H]2C)C1` [Compound 4, 26,27-cyclo-24,27-dimethylcholestan-3,3-dimethoxy-7α,12β,20β-triol]: the inhibition – broadly, the relative decrease from the control value, in per cent – at 24.7 µM in the test on HepG2 (hepatocarcinoma) (HepG-2, at 24.70 μM) came to 20.3%; in test [3] (MRC5, MRC-5, at 24.70 μM), 5.45%. Besides, the inhibition at 12.35 µM in test [1] (HuCC-A1, at 12.35 μM) came to 0%; in test [5] (at 12.35 μM) it was 0%; in the test on A549 (human lung cancer) (at 12.35 μM) it was 2%.
Take `C[C@H](CC[C@](C)(O)[C@H]1CC[C@@]2(O)[C@@H]3CC[C@H]4C[C@H](O)CC[C@]4(C)[C@H]3C[C@@H](O)[C@]12C)[C@@H]1C[C@H]1C` [Compound 2, 26,27-cyclo-24,27-dimethylcholestan-3α,12β,14,20β-tetraol]: the 50% inhibitory concentration (IC50) with HepG2 (hepatocarcinoma) came to 44.8 ± 3.79 µM; in test [1], 37.9 ± 3.01 µM; in test [3], 60.6 ± 12.8 µM; in test [5], 32.4 ± 1.08 µM; in the test with A549 (human lung cancer) it was 38.59 ± 0.24 µM.
In the same order, the values of `COC1(OC)CC[C@@]2(C)C(CC[C@H]3C4CC[C@H]([C@@](O)(CO)[C@H](O)C[C@@H](C)[C@@H]5C[C@H]5C)[C@@]4(C)[C@H](O)C[C@@H]32)C1` (stereo partly drawn) [Compound 13, 26,27-cyclo-24,27-dimethylcholestan-3,3-dimethoxy-12β,21,20α,22α-tetraol] are 12.5 ± 0.84 µM, 20.8 ± 2.32 µM, 37.7 ± 10.7 µM, 14.9 ± 0.25 µM and 17.9 ± 2.26 µM.
Regarding `CC(CCC(C)(O)[C@H]1CC[C@H]2[C@@H]3[C@H](O)C[C@H]4CC(=O)CC[C@]4(C)[C@H]3C[C@@H](O)[C@]12C)C1CC1C` (stereo partly drawn) [Compound 8, xestokerol B], the half-inhibitory concentration (IC50) in the test with HepG2 (hepatocarcinoma) was 18.2 ± 1.86 µM; in test [1], 103 ± 2.29 µM; in test [3] it was 90.1 ± 6.88 µM; with A549 (human lung cancer), 32.6 ± 3.64 µM. The compound also had an inhibition at 108.7 µM in test [5] (at 108.70 μM) of 43%.
For the compound `CC(C)CC=CC(C)(O)C1CCC2C3C(O)CC4CC(=O)CCC4(C)C3CC(O)C21C` (stereo not drawn) [Compound 12, 7α,12β,20β-trihydroxycholesta-22E-en-3-one], the IC50 with HepG2 (hepatocarcinoma) turned out to be 56.5 ± 2.15 µM; in test [1], 66.1 ± 0.9 µM; in test [3], 76.9 ± 10.7 µM; in test [5], 36.6 ± 1.11 µM; in the test on A549 (human lung cancer), 54.3 ± 3.84 µM.
For `C[C@H](CC[C@](C)(O)[C@H]1CC[C@H]2[C@@H]3CC[C@H]4C[C@H](O)CC[C@]4(C)[C@H]3C[C@@H](O)[C@@]21C)[C@@H]1C[C@H]1C` [Compound 6, aragusterol I], the IC50 in the test with HepG2 (hepatocarcinoma) came to 54.9 ± 2.04 µM; in test [1], 37.06 ± 0.36 µM; in test [3] it was 63.4 ± 8.3 µM; in test [5] it was 20.1 ± 0.52 µM; in the test on A549 (human lung cancer) it was 34.7 ± 17.7 µM.
As for `C[C@@H]1C[C@H]1[C@H](C)C[C@@H](O)[C@@]1([C@H]2CC[C@H]3[C@@H]4CC[C@H]5CC(=O)CC[C@]5(C)[C@H]4C[C@@H](O)[C@]23C)CO1` [Compound 15, aragusterol A], the IC50 was determined as 7.1 ± 4.76 µM in the test with HepG2 (hepatocarcinoma); 37.6 ± 1.4 µM in test [1]; 6.11 ± 0.02 µM in test [2]; 12.8 ± 0.98 µM in test [5]; 37.93 ± 0.07 µM with A549 (human lung cancer); 18 ± 5.74 µM in test [4].
Turning to `C[C@H](CC[C@](C)(O)[C@H]1CCC2[C@@H]3[C@H](O)C=C4C[C@@H](O)CC[C@]4(C)[C@H]3C[C@@H](O)[C@@]21C)[C@@H]1C[C@H]1C` (stereo partly drawn) [Compound 3, 26,27-cyclo-24,27-dimethylcholest-5-ene-3β,7α,12β,20β-tetraol], the IC50 in the test on HepG2 (hepatocarcinoma) worked out at 44.6 ± 9.76 µM; in test [1] it was 47.5 ± 6.96 µM. Besides, the inhibition at 54.35 µM in test [3] (MRC5, MRC-5, at 54.35 μM) is 24.7%; in the test on A549 (human lung cancer) (at 54.35 μM) it was 9%. This compound also had an inhibition at 27.17 µM in test [5] (at 27.17 μM) of 8%.
As to `COC1(OC)CC[C@@]2(C)C(CC[C@H]3C4CC[C@H]([C@]5([C@@H](O)C[C@@H](C)[C@@H]6C[C@H]6C)CO5)[C@@]4(C)[C@H](O)C[C@@H]32)C1` (stereo partly drawn) [Compound 16, aragusterolketal], the IC50 in the test with HepG2 (hepatocarcinoma) stood at 11.3 ± 9.29 µM; in test [1] it was 34.6 ± 3.85 µM; in test [3], 49.6 ± 6.67 µM; in test [5], 14.6 ± 0.36 µM; in the test on A549 (human lung cancer), 29.1 ± 8.25 µM.
Consider `CC(CCC(C)(O)C1CCC2C3C(O)CC4CC(O)CCC4(C)C3CC(O)C21C)C1CC1C` (stereo not drawn) [Compound 1, 26,27-cyclo-24,27-dimethylcholestan-3α,7α,12β,20β-tetraol], for which the IC50 in the test on HepG2 (hepatocarcinoma) was found to be 12.7 ± 1.67 µM; in test [1], 21.3 ± 1.84 µM; in test [3], 40.1 ± 1.23 µM; in test [5] it was 17.9 ± 0.26 µM; in the test with A549 (human lung cancer) it was 20 ± 1.52 µM.
In the case of `C[C@H](CC[C@](C)(O)[C@H]1CC[C@H]2[C@@H]3CC[C@H]4CC(=O)CC[C@]4(C)[C@H]3C[C@@H](O)[C@@]21C)[C@H]1C[C@@H]1C` [Compound 7, aragusterol B], the IC50 in the test with HepG2 (hepatocarcinoma) is 26.5 ± 5.32 µM; in test [1], 25.1 ± 2.27 µM; in test [2] it was 11.23 ± 0.05 µM; in test [5], 16.3 ± 18 µM; in the test on A549 (human lung cancer), 23.6 ± 2 µM; in test [4] it was 27 ± 7.79 µM.
For `C[C@H](CC[C@@H](C)[C@H]1CC[C@H]2[C@@H]3C(=O)C=C4C[C@@H](O)CC[C@]4(C)[C@H]3CC[C@]12C)[C@@H]1C[C@H]1C` [Compound 10, 7-oxopetrosterol], the IC50 in the test with HepG2 (hepatocarcinoma) came out at 49.8 ± 3.96 µM; in test [3], 44.8 ± 1.36 µM; in the test with A549 (human lung cancer), 52.1 ± 3.35 µM. The compound further came in with an inhibition at 58.69 µM in test [1] (HuCC-A1, at 58.69 μM) of 44%. The same compound returned an inhibition at 29.34 µM in test [5] (at 29.34 μM) of 2%.
